Data: patent US6541450B1, “Parathyroid hormone analogues for the treatment of osteoporosis” (National Research Council of Canada, priority 1994, dated 2003)
pEC50: −log10 of the molar value. Where a SMILES comes first, the peptide text is derived from it. Bridges are numbered along the chain shown (N, C = ends). [ ]: non-standard residue; d: D form. Nle = CCCC[C@H](N)C(=O)O

Tests used:
[1] = molecular target: T1, adenylyl cyclase, ROS 17/2 cells (Rattus norvegicus, UniProt P25961); experiment: Adenylyl cyclase stimulation, [3H]-cyclic AMP production in ROS 17/2 cells; format: cell-based; conditions: ROS 17/2 cells; concentration for half-maximal increase in AC activity; read-out: Adenylyl Cyclase (EC50)
T1 sequence (P25961 27-591): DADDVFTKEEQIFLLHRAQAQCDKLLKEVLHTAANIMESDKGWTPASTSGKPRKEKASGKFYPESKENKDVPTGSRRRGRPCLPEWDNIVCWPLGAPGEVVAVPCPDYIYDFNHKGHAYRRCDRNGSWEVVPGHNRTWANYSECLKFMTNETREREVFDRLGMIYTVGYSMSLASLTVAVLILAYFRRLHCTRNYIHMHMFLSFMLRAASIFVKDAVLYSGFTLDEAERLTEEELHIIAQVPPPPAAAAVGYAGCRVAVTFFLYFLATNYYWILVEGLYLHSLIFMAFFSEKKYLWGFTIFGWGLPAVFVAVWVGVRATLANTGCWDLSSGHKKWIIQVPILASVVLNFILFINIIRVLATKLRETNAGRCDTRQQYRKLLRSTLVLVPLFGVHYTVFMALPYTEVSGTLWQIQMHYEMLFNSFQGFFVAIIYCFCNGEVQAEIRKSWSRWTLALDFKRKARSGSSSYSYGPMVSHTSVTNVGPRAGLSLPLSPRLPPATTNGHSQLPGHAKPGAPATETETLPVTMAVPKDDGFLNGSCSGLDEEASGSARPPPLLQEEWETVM

[2] = system: anesthetized female Sprague-Dawley rats; experiment: Hypotensive effect, tail artery pressure in anaesthetized rats; conditions: subcutaneous

SMILES | pEC50 [1] | bioavailability, in words ([2]; 0.8 nmol/100 g, inferred from time to minimum bp) | rate of transport of subcutaneously injected peptide to the vascular system ([2]; 0.8 nmol/100 g of body weight)
CC[C@H](C)[C@H](NC(=O)[C@H](CCC(=O)O)NC(=O)[C@H](CO)NC(=O)[C@@H](NC(=O)[C@@H](N)CO)C(C)C)C(=O)N[C@@H](CCC(N)=O)C(=O)N[C@@H](CC(C)C)C(=O)N[C@@H](CCSC)C(=O)N[C@@H](Cc1c[nH]cn1)C(=O)N[C@@H](CC(N)=O)C(=O)N[C@@H](CC(C)C)C(=O)NCC(=O)N[C@@H](CCCCN)C(=O)N[C@@H](Cc1c[nH]cn1)C(=O)N[C@@H](CC(C)C)C(=O)N[C@@H](CC(N)=O)C(=O)N[C@@H](CO)C(=O)N[C@@H](CCSC)C(=O)N[C@@H](CCC(=O)O)C(=O)N[C@@H](CCCN=C(N)N)C(=O)N[C@H](C(=O)N[C@H]1CCC(=O)NCCCC[C@@H](C(=O)N[C@@H](CC(C)C)C(=O)N[C@@H](CC(C)C)C(=O)N[C@@H](CCC(N)=O)C(=O)N[C@@H](CC(=O)O)C(=O)N[C@H](C(N)=O)C(C)C)NC(=O)[C@H](CCCN=C(N)N)NC(=O)[C@H](CC(C)C)NC(=O)[C@H](Cc2c[nH]c3ccccc23)NC1=O)C(C)C [peptide 3, [Leu^27]cyclo(Glu^22-Lys^26)-hPTH-(1-31)-NH2] (H-SVSEIQLMHNLGKHLNSMERVEWLRKLLQDV-NH2; lactam 22-26) | 8.52 | increased bioavailability | 
CC[C@H](C)[C@H](NC(=O)[C@H](CCC(=O)O)NC(=O)[C@H](CO)NC(=O)[C@@H](NC(=O)[C@@H](N)CO)C(C)C)C(=O)N[C@@H](CCC(N)=O)C(=O)N[C@@H](CC(C)C)C(=O)N[C@@H](CCSC)C(=O)N[C@@H](Cc1c[nH]cn1)C(=O)N[C@@H](CC(N)=O)C(=O)N[C@@H](CC(C)C)C(=O)NCC(=O)N[C@@H](CCCCN)C(=O)N[C@@H](Cc1c[nH]cn1)C(=O)N[C@@H](CC(C)C)C(=O)N[C@@H](CC(N)=O)C(=O)N[C@@H](CO)C(=O)N[C@@H](CCSC)C(=O)N[C@@H](CCC(=O)O)C(=O)N[C@@H](CCCNC(=N)N)C(=O)N[C@H](C(=O)N[C@@H](CCC(=O)O)C(=O)N[C@@H](Cc1c[nH]c2ccccc12)C(=O)N[C@@H](CC(C)C)C(=O)N[C@@H](CCCNC(=N)N)C(=O)N[C@H]1CSSC[C@@H](C(=O)N[C@H](C(N)=O)C(C)C)NC(=O)[C@H](CCC(N)=O)NC(=O)[C@H](CC(C)C)NC(=O)[C@H](CC(C)C)NC1=O)C(C)C [[Cys^26, Cys^30, Leu^27]cyclo(Cys^26—Cys^30)—hPTH—(1-31)-NH2] (H-SVSEIQLMHNLGKHLNSMERVEWLRCLLQCV-NH2; disulfide 26-30) | 7.62 |  | 
CC[C@H](C)[C@H](NC(=O)[C@H](CCC(=O)O)NC(=O)[C@H](CO)NC(=O)[C@@H](NC(=O)[C@@H](N)CO)C(C)C)C(=O)N[C@@H](CCC(N)=O)C(=O)N[C@@H](CC(C)C)C(=O)N[C@@H](CCSC)C(=O)N[C@@H](Cc1c[nH]cn1)C(=O)N[C@@H](CC(N)=O)C(=O)N[C@@H](CC(C)C)C(=O)NCC(=O)N[C@@H](CCCCN)C(=O)N[C@@H](Cc1c[nH]cn1)C(=O)N[C@@H](CC(C)C)C(=O)N[C@@H](CC(N)=O)C(=O)N[C@@H](CO)C(=O)N[C@@H](CCSC)C(=O)N[C@@H](CCC(=O)O)C(=O)N[C@@H](CCCN=C(N)N)C(=O)N[C@H](C(=O)N[C@H]1CCC(=O)NCCCC[C@@H](C(=O)N[C@@H](CC(C)C)C(=O)N[C@@H](CC(C)C)C(=O)N[C@@H](CCC(N)=O)C(=O)N[C@@H](CC(=O)O)C(N)=O)NC(=O)[C@H](CCCN=C(N)N)NC(=O)[C@H](CC(C)C)NC(=O)[C@H](Cc2c[nH]c3ccccc23)NC1=O)C(C)C [compound 8, [Leu^27]cyclo(Glu^22Lys^26)-hPTH-(1-30)-NH2] (H-SVSEIQLMHNLGKHLNSMERVEWLRKLLQD-NH2; lactam 22-26) | 7.70 |  | significantly (p<0.05) reduced rates of transport
CC[C@H](C)[C@H](NC(=O)[C@H](CCC(=O)O)NC(=O)[C@H](CO)NC(=O)[C@@H](NC(=O)[C@@H](N)CO)C(C)C)C(=O)N[C@@H](CCC(N)=O)C(=O)N[C@@H](CC(C)C)C(=O)N[C@@H](CCSC)C(=O)N[C@@H](Cc1c[nH]cn1)C(=O)N[C@@H](CC(N)=O)C(=O)N[C@@H](CC(C)C)C(=O)NCC(=O)N[C@@H](CCCCN)C(=O)N[C@@H](Cc1c[nH]cn1)C(=O)N[C@@H](CC(C)C)C(=O)N[C@@H](CC(N)=O)C(=O)N[C@@H](CO)C(=O)N[C@@H](CCSC)C(=O)N[C@@H](CCC(=O)O)C(=O)N[C@@H](CCCNC(=N)N)C(=O)N[C@H](C(=O)N[C@H]1CCC(=O)NCCCC[C@@H](C(=O)N[C@@H](Cc2ccc(O)cc2)C(=O)N[C@@H](CC(C)C)C(=O)N[C@@H](CCC(N)=O)C(=O)N[C@@H](CC(=O)O)C(=O)N[C@H](C(N)=O)C(C)C)NC(=O)[C@H](CCCNC(=N)N)NC(=O)[C@H](CC(C)C)NC(=O)[C@H](Cc2c[nH]c3ccccc23)NC1=O)C(C)C [[Tyr^27]cyclo(Glu^22—Lys^26)—hPTH—(1-31)-NH2] (H-SVSEIQLMHNLGKHLNSMERVEWLRKYLQDV-NH2; lactam 22-26; N-terminus assumed) | 8.05 |  | 

Continued, in another order:

pEC50 [1] | bioavailability, in words ([2]; 0.8 nmol/100 g, inferred from time to minimum bp) | SMILES | rate of transport of subcutaneously injected peptide to the vascular system ([2]; 0.8 nmol/100 g of body weight)
7.77 |  | CC[C@H](C)[C@H](NC(=O)[C@H](CCC(=O)O)NC(=O)[C@H](CO)NC(=O)[C@@H](NC(=O)[C@@H](N)CO)C(C)C)C(=O)N[C@@H](CCC(N)=O)C(=O)N[C@@H](CC(C)C)C(=O)N[C@@H](CCSC)C(=O)N[C@@H](Cc1c[nH]cn1)C(=O)N[C@@H](CC(N)=O)C(=O)N[C@@H](CC(C)C)C(=O)NCC(=O)N[C@@H](CCCCN)C(=O)N[C@@H](Cc1c[nH]cn1)C(=O)N[C@@H](CC(C)C)C(=O)N[C@@H](CC(N)=O)C(=O)N[C@@H](CO)C(=O)N[C@@H](CCSC)C(=O)N[C@@H](CCC(=O)O)C(=O)N[C@@H](CCCNC(=N)N)C(=O)N[C@H](C(=O)N[C@H]1CCC(=O)NCCCC[C@@H](C(=O)N[C@@H](CCCCN)C(=O)N[C@@H](CC(C)C)C(=O)N[C@@H](CCC(N)=O)C(=O)N[C@@H](CC(=O)O)C(=O)N[C@H](C(N)=O)C(C)C)NC(=O)[C@H](CCCNC(=N)N)NC(=O)[C@H](CC(C)C)NC(=O)[C@H](Cc2c[nH]c3ccccc23)NC1=O)C(C)C [cyclo(Glu^22—Lys^26)—hPTH—(1-31)-NH2] | 
8.05 |  | CCCC[C@H](NC(=O)[C@@H]1CCCCNC(=O)CC[C@H](NC(=O)[C@@H](NC(=O)[C@H](CCCNC(=N)N)NC(=O)[C@H](CCC(=O)O)NC(=O)[C@H](CCSC)NC(=O)[C@H](CO)NC(=O)[C@H](CC(N)=O)NC(=O)[C@H](CC(C)C)NC(=O)[C@H](Cc2c[nH]cn2)NC(=O)[C@H](CCCCN)NC(=O)CNC(=O)[C@H](CC(C)C)NC(=O)[C@H](CC(N)=O)NC(=O)[C@H](Cc2c[nH]cn2)NC(=O)[C@H](CCSC)NC(=O)[C@H](CC(C)C)NC(=O)[C@H](CCC(N)=O)NC(=O)[C@@H](NC(=O)[C@H](CCC(=O)O)NC(=O)[C@H](CO)NC(=O)[C@@H](NC(=O)[C@@H](N)CO)C(C)C)[C@@H](C)CC)C(C)C)C(=O)N[C@@H](Cc2c[nH]c3ccccc23)C(=O)N[C@@H](CC(C)C)C(=O)N[C@@H](CCCNC(=N)N)C(=O)N1)C(=O)N[C@@H](CC(C)C)C(=O)N[C@@H](CCC(N)=O)C(=O)N[C@@H](CC(=O)O)C(=O)N[C@H](C(N)=O)C(C)C [[Nle^27]cyclo(Glu^22—Lys^26)—hPTH—(1-31)-NH2] (H-SVSEIQLMHNLGKHLNSMERVEWLRK[Nle]LQDV-NH2; lactam 22-26) | 
7.62 |  | CC[C@H](C)[C@H](NC(=O)[C@H](CCC(=O)O)NC(=O)[C@H](CO)NC(=O)[C@@H](NC(=O)[C@H](CO)NC(C)=O)C(C)C)C(=O)N[C@@H](CCC(N)=O)C(=O)N[C@@H](CC(C)C)C(=O)N[C@@H](CCSC)C(=O)N[C@@H](Cc1c[nH]cn1)C(=O)N[C@@H](CC(N)=O)C(=O)N[C@@H](CC(C)C)C(=O)NCC(=O)N[C@@H](CCCCN)C(=O)N[C@@H](Cc1c[nH]cn1)C(=O)N[C@@H](CC(C)C)C(=O)N[C@@H](CC(N)=O)C(=O)N[C@@H](CO)C(=O)N[C@@H](CCSC)C(=O)N[C@@H](CCC(=O)O)C(=O)N[C@@H](CCCNC(=N)N)C(=O)N[C@H](C(=O)N[C@H]1CCC(=O)NCCCC[C@@H](C(=O)N[C@@H](CC(C)C)C(=O)N[C@@H](CC(C)C)C(=O)N[C@@H](CCC(N)=O)C(=O)N[C@@H](CC(=O)O)C(=O)N[C@H](C(N)=O)C(C)C)NC(=O)[C@H](CCCNC(=N)N)NC(=O)[C@H](CC(C)C)NC(=O)[C@H](Cc2c[nH]c3ccccc23)NC1=O)C(C)C [α-acetyl-[Leu^27]cyclo(Glu^22—Lys^26)—hPTH—(1-31)-NH2] (Ac-SVSEIQLMHNLGKHLNSMERVEWLRKLLQDV-NH2; lactam 22-26) | 
8.05 |  | CC[C@H](C)[C@H](NC(=O)[C@H](CCC(=O)O)NC(=O)[C@H](CO)NC(=O)[C@@H](NC(=O)[C@@H](N)CO)C(C)C)C(=O)N[C@@H](CCC(N)=O)C(=O)N[C@@H](CC(C)C)C(=O)N[C@@H](CCSC)C(=O)N[C@@H](Cc1c[nH]cn1)C(=O)N[C@@H](CC(N)=O)C(=O)N[C@@H](CC(C)C)C(=O)NCC(=O)N[C@@H](CCCCN)C(=O)N[C@@H](Cc1c[nH]cn1)C(=O)N[C@@H](CC(C)C)C(=O)N[C@@H](CC(N)=O)C(=O)N[C@@H](CO)C(=O)N[C@@H](CCSC)C(=O)N[C@@H](CCC(=O)O)C(=O)N[C@@H](CCCNC(=N)N)C(=O)N[C@H](C(=O)N[C@H]1CCC(=O)NCCCC[C@@H](C(=O)N[C@@H](C)C(=O)N[C@@H](CC(C)C)C(=O)N[C@@H](CCC(N)=O)C(=O)N[C@@H](CC(=O)O)C(=O)N[C@H](C(N)=O)C(C)C)NC(=O)[C@H](CCCNC(=N)N)NC(=O)[C@H](CC(C)C)NC(=O)[C@H](Cc2c[nH]c3ccccc23)NC1=O)C(C)C [[Ala^27]cyclo(Glu^22—Lys^26)—hPTH—(1-31)-NH2] (H-SVSEIQLMHNLGKHLNSMERVEWLRKALQDV-NH2; lactam 22-26; N-terminus assumed) | 
